Assay results from the supplement of paper PMC10307832.

Columns and labels:
Experiment in all cases: relative viability (nuclei count vs DMSO), 5 days (fraction); higher = more cells survive
Bleomycin + Palbociclib = compound: CC1=C(N=C(N=C1N)[C@H](CC(=O)N)NC[C@@H](C(=O)N)N)C(=O)N[C@@H]([C@H](C2=CN=CN2)OC3C(C(C(C(O3)CO)O)O)OC4C(C(C(C(O4)CO)O)OC(=O)N)O)C(=O)N[C@H](C)[C@H]([C@H](C)C(=O)N[C@@H]([C@@H](C)O)C(=O)NCCC5=NC(=CS5)C6=NC(=CS6)C(=O)NCCC[S+](C)C)O [Bleomycin] + CC(=O)c1c(C)c2cnc(Nc3ccc(N4CCNCC4)cn3)nc2n(C2CCCC2)c1=O [Palbociclib] (partner 0.5 µM); conditions: main component drawn
In short: (§1)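 Relative viability divides the nuclei count in treated wells by that in vehicle wells. Lung cancer cell lines were seeded in 1536-well plates, dosed by pin tool the next day, and fixed and stained after 5 days in one step with final 0.05% Triton X-100, 1% formaldehyde and 1 ug/ml Hoechst. Dosing was a single drug or a fixed anchor-drug dose plus five library-drug doses (not always all listed) in √10 steps, and values are medians of duplicate plates imaged at 4×.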

Bleomycin + Crizotinib = compound: CC1=C(N=C(N=C1N)[C@H](CC(=O)N)NC[C@@H](C(=O)N)N)C(=O)N[C@@H]([C@H](C2=CN=CN2)OC3C(C(C(C(O3)CO)O)O)OC4C(C(C(C(O4)CO)O)OC(=O)N)O)C(=O)N[C@H](C)[C@H]([C@H](C)C(=O)N[C@@H]([C@@H](C)O)C(=O)NCCC5=NC(=CS5)C6=NC(=CS6)C(=O)NCCC[S+](C)C)O [Bleomycin] + C[C@@H](Oc1cc(-c2cnn(C3CCNCC3)c2)cnc1N)c1c(Cl)ccc(F)c1Cl [Crizotinib] (partner 1 µM); conditions: main component drawn
In short: as §1

Etoposide + Bortezomib = compound: COc1cc([C@@H]2c3cc4c(cc3[C@@H](O[C@@H]3O[C@@H]5CO[C@@H](C)O[C@H]5[C@H](O)[C@H]3O)[C@H]3COC(=O)[C@H]23)OCO4)cc(OC)c1O [Etoposide] + CC(C)C[C@H](NC(=O)[C@H](Cc1ccccc1)NC(=O)c1cnccn1)B(O)O [Bortezomib] (partner 0.002 µM)
In short: as §1

Etoposide + Vorinostat = compound: COc1cc([C@@H]2c3cc4c(cc3[C@@H](O[C@@H]3O[C@@H]5CO[C@@H](C)O[C@H]5[C@H](O)[C@H]3O)[C@H]3COC(=O)[C@H]23)OCO4)cc(OC)c1O [Etoposide] + O=C(CCCCCCC(=O)Nc1ccccc1)NO [Vorinostat] (partner 1 µM)
In short: as §1

Cell Line | relative viability (Bleomycin + Palbociclib; first compound 0.01 µM) | relative viability (Bleomycin + Palbociclib; first compound 0.03162 µM) | relative viability (Bleomycin + Palbociclib; first compound 0.1 µM) | relative viability (Bleomycin + Palbociclib; first compound 0.3162 µM) | relative viability (Bleomycin + Palbociclib; first compound 1 µM) | relative viability (Bleomycin + Crizotinib; first compound 0.01 µM) | relative viability (Bleomycin + Crizotinib; first compound 0.03162 µM) | relative viability (Bleomycin + Crizotinib; first compound 0.1 µM) | relative viability (Bleomycin + Crizotinib; first compound 0.3162 µM) | relative viability (Bleomycin + Crizotinib; first compound 1 µM) | relative viability (Etoposide + Bortezomib; first compound 0.01 µM) | relative viability (Etoposide + Bortezomib; first compound 0.03162 µM) | relative viability (Etoposide + Bortezomib; first compound 0.1 µM) | relative viability (Etoposide + Bortezomib; first compound 0.3162 µM) | relative viability (Etoposide + Bortezomib; first compound 1 µM) | relative viability (Etoposide + Vorinostat; first compound 0.01 µM) | relative viability (Etoposide + Vorinostat; first compound 0.03162 µM) | relative viability (Etoposide + Vorinostat; first compound 0.1 µM) | relative viability (Etoposide + Vorinostat; first compound 0.3162 µM) | relative viability (Etoposide + Vorinostat; first compound 1 µM)
HCC-78 | 0.522 | 0.533 | 0.412 | 0.4 | 0.463 | 0.31 | 0.294 | 0.297 | 0.229 | 0.267 | 0.487 | 0.5 | 0.35 | 0.314 | 0.229 | 0.396 | 0.494 | 0.329 | 0.256 | 0.242
HCC-366 | 0.19 | 0.155 | 0.106 | 0.0548 | 0.0409 | 0.152 | 0.137 | 0.0986 | 0.0238 | 0.0225 | 1.04 | 1.03 | 0.518 | 0.135 | 0.0399 | 0.353 | 0.386 | 0.122 | 0.0606 | 0.0304
HCC-827 | 0.46 |  | 0.611 | 0.243 | 0.18 | 0.872 | 0.95 | 0.831 | 0.635 | 0.274 | 1.09 | 1.06 | 1.07 | 0.803 | 0.458 | 0.917 | 0.972 | 0.746 | 0.605 | 0.181
HOP-62 | 0.249 | 0.259 | 0.285 | 0.167 | 0.125 | 0.531 | 0.477 | 0.325 | 0.144 | 0.106 | 0.644 | 0.901 | 0.298 | 0.412 | 0.328 | 0.631 | 0.711 | 0.381 | 0.267 | 0.115
LC-2-ad | 0.454 | 0.541 | 0.421 | 0.3 | 0.31 | 0.428 | 0.404 | 0.326 | 0.226 | 0.275 | 0.9 | 1.08 | 0.977 | 0.742 | 0.209 | 0.687 | 0.736 | 0.69 | 0.459 | 0.245
LCLC-97TM1 | 0.154 | 0.211 | 0.157 | 0.112 | 0.101 | 0.18 | 0.219 | 0.14 | 0.109 | 0.0966 | 0.865 | 0.329 | 0.485 | 0.132 | 0.0671 | 0.783 | 0.896 | 0.315 | 0.316 | 0.0855
LCLC-103H | 0.501 | 0.525 | 0.547 | 0.373 | 0.43 | 0.956 | 1.01 | 1 | 0.915 | 0.588 | 1.1 | 1.24 | 0.93 | 0.956 | 0.978 | 0.745 | 0.94 | 0.663 | 0.672 | 0.575
LOU-NH91 | 0.476 | 0.449 | 0.428 | 0.35 | 0.364 | 0.593 | 0.537 | 0.531 | 0.39 | 0.331 | 0.563 | 0.502 | 0.498 | 0.435 | 0.375 | 0.88 | 0.982 | 0.831 | 0.659 | 0.387
LU99A | 0.329 | 0.405 | 0.286 | 0.167 | 0.126 | 0.344 | 0.358 | 0.284 | 0.12 | 0.16 | 1.31 | 1.31 | 0.661 | 0.432 | 0.19 | 0.489 | 0.533 | 0.23 | 0.297 | 0.108
LXF-289 | 0.58 | 0.571 | 0.606 | 0.324 | 0.221 | 0.725 | 0.678 | 0.679 | 0.239 | 0.149 | 1.01 | 1.07 | 0.994 | 0.75 | 0.252 | 0.763 | 0.744 | 0.953 | 0.547 | 0.136
NCI-H23 | 0.311 | 0.251 | 0.25 | 0.15 | 0.152 | 0.249 | 0.231 | 0.251 | 0.162 | 0.153 | 0.919 | 1.15 | 0.516 | 0.317 | 0.215 | 0.633 | 0.604 | 0.316 | 0.262 | 0.145
NCI-H322M | 0.472 | 0.562 | 0.484 | 0.428 | 0.491 | 0.701 | 0.852 | 0.908 | 0.958 | 0.527 | 1.27 | 1.22 | 0.994 | 1.17 | 1.07 | 0.863 | 0.962 | 0.73 | 0.728 | 0.611
NCI-H441 | 0.182 | 0.203 | 0.185 | 0.153 | 0.17 |  | 0.534 | 0.469 | 0.363 | 0.398 | 0.457 | 0.469 | 0.447 | 0.286 | 0.177 | 0.645 | 0.625 | 0.345 | 0.224 | 0.182
NCI-H460 | 0.0989 | 0.126 | 0.0546 | 0.0357 | 0.0284 | 0.331 | 0.0828 | 0.0648 | 0.0162 | 0.0149 | 0.933 | 0.763 | 0.608 | 0.0494 | 0.0267 | 0.688 | 0.261 | 0.286 | 0.0502 | 0.0457
NCI-H520 | 0.215 | 0.218 | 0.215 | 0.203 | 0.206 | 0.531 | 0.898 | 0.735 | 0.505 | 0.4 | 0.484 | 0.634 | 0.379 | 0.576 | 0.561 | 0.777 | 0.776 | 0.878 | 0.591 | 0.461
